Earlier results on three compounds are cited in patent publication US7678905B2, “Aminotetrahydropyrans as dipeptidyl peptidase-IV inhibitors for the treatment or prevention of diabetes” (Merck Sharp & Dohme Corp., priority 2006, dated 2010).

For one series, the system named is cardiac allograft. Particulars: rats; survival doubled from day 7.
Another series has as its system hematopoiesis. Particulars: mouse, cyclophosphamide-induced neutropenia.
In series [1] the test system is GRF degradation in plasma.

In the case of `CC(C)N1CCC(c2ccccc2)(c2ccccc2)CC1` [Prodipine, Pro-Pro-diphenyl-phosphonate], in the series with cardiac allograft, the cardiac allograft survival is recorded as 14 day.
Take `CC(C)[C@H](N)C(=O)N1CCC[C@H]1B(O)O` [Val-Boro-Pro]: the effect on hematopoiesis result in the series with hematopoiesis is on record as “stimulated hematopoiesis”.
Take diprotin A: in series [1], the “degradation of GRF to GRF[3-44] in plasma” value was “prevented”.
